What was measured:
[1] = Inhibitory activity against v-H-Ras gene transfected cell line; format: functional
[2] = target: T1, Protein farnesyltransferase (Homo sapiens, UniProt P49354+P49356); assay: Inhibition of farnesyltransferase; format: protein-complex assay
Mus musculus [3] = assay: Percent control tumor size in mouse xenograft assay (rat H-ras transformed fibroblasts) at 100 mg/kg peroral dose; format: functional; settings: route oral
Mus musculus [4] = assay: Percent control tumor size in mouse xenograft assay (rat H-ras transformed fibroblasts) at 200 mg/kg peroral dose; format: functional; settings: route oral
[5] = Inhibition of geranylgeranyl transferase
[6] = target: T1, Protein farnesyltransferase; assay: Inhibition of Farnesyltransferase; format: protein-complex assay

With `N#Cc1ccc(Cn2cncc2CNC2C(=O)N(Cc3ccccc3Cl)CCc3ccccc32)cc1` (centres undefined) the IC50 [1] was 92 nM and the IC50 [2] was 23 nM.
`N#Cc1ccc(Cn2cncc2CNC2Cc3ccccc3CN(Cc3ccc(Cl)cc3Cl)C2=O)cc1` (centres undefined) gave an IC50 [1] of 141 nM and an IC50 [2] of 142 nM.
In the case of `Cc1ccccc1CN1Cc2ccccc2CC(NCc2cncn2Cc2ccc(C#N)cc2)C1=O` (centres undefined), the IC50 [1] is reported as 4 nM, the Control (Mus musculus [3]) is reported as 76% and the Control (Mus musculus [4]) is reported as 57%. For the same compound, the IC50 [2] was 3 nM and the IC50 [5] was 7100 nM.
In the case of `Cc1ccccc1CN1CCc2ccccc2C(NCc2cncn2Cc2ccc(C#N)cc2)C1=O` (centres undefined), the IC50 [1] is reported as 96 nM and the IC50 [2] is reported as 54 nM.
`N#Cc1ccc(Cn2cncc2CNC2C(=O)N(c3cc(Cl)cc(Cl)c3)CCc3ccccc32)cc1` (centres undefined) gave an IC50 [1] of 19 nM and an IC50 [6] of 32 nM.
Compound `N#Cc1ccc(Cn2cncc2CNC2C(=O)N(c3cc(F)cc(F)c3)CCc3ccccc32)cc1` (centres undefined) has an IC50 [1] of 86 nM and an IC50 [2] of 62 nM.
Work on `N#Cc1ccc(Cn2cncc2CNC2Cc3ccccc3CN(c3cc(F)cc(F)c3)C2=O)cc1` (centres undefined) yielded an IC50 [1] of 40 nM and an IC50 [2] of 10 nM.
For `N#Cc1ccc(Cn2cncc2CNC2Cc3ccccc3CN(Cc3cc(F)cc(F)c3)C2=O)cc1` (centres undefined), the IC50 [1] was 16 nM and the IC50 [2] was 8 nM.
`N#Cc1ccc(Cn2cncc2CNC2C(=O)N(Cc3cccc(Cl)c3)CCc3ccccc32)cc1` (centres undefined) showed an IC50 [1] of 183 nM and an IC50 [2] of 23 nM.
Compound `N#Cc1ccc(Cn2cncc2CNC2Cc3ccccc3CN(Cc3cccc(Cl)c3)C2=O)cc1` (centres undefined) has an IC50 [1] of 4 nM and an IC50 [2] of 6 nM.
`N#Cc1ccc(Cn2cncc2CNC2C(=O)N(c3cccc(Cl)c3)CCc3ccccc32)cc1` (racemic) gave an IC50 [1] of 39 nM, a Control (Mus musculus [3]) of 70% and a Control (Mus musculus [4]) of 43%. For the same compound, the IC50 [2] was 19 nM and the IC50 [5] was 7700 nM.
Compound `N#Cc1ccc(Cn2cncc2CNC2C(=O)N(Cc3cccc(Br)c3)CCc3ccccc32)cc1` (centres undefined) has an IC50 [1] of 60 nM and an IC50 [2] of 22 nM.
`N#Cc1ccc(Cn2cncc2CNC2Cc3ccccc3CN(Cc3ccccc3)C2=O)cc1` (centres undefined) showed an IC50 [1] of 6 nM and an IC50 [2] of 17 nM.
Compound `N#Cc1ccc(Cn2cncc2CNC2C(=O)N(Cc3cccc(F)c3)CCc3ccccc32)cc1` (centres undefined) has an IC50 [1] of 67 nM and an IC50 [2] of 78 nM.
With `N#Cc1ccc(Cn2cncc2CN[C@H]2CCCCN(Cc3ccccc3)C2=O)cc1` the IC50 [1] was 10 nM and the IC50 [2] was 8 nM.
Work on `N#Cc1ccc(Cn2cncc2CN[C@H]2Cc3ccccc3CN(c3ccccc3)C2=O)cc1` yielded an IC50 [1] of 16 nM and an IC50 [2] of 19 nM.
Compound `N#Cc1ccc(Cn2cncc2CNC2Cc3ccccc3CN(Cc3cc(F)cc(F)c3F)C2=O)cc1` (centres undefined) has an IC50 [1] of 47 nM and an IC50 [2] of 18 nM.
Work on `N#Cc1ccc(Cn2cncc2CNC2Cc3ccccc3CN(CC3CCCCC3)C2=O)cc1` (centres undefined) yielded an IC50 [1] of 26 nM and an IC50 [2] of 47 nM.
`N#Cc1ccc(Cn2cncc2CNC2Cc3ccccc3CN(Cc3ccccc3Cl)C2=O)cc1` (centres undefined) showed an IC50 [1] of 6 nM and an IC50 [2] of 10 nM.
With `N#Cc1ccc(Cn2cncc2CNC2Cc3ccccc3CN(c3cccc([N+](=O)[O-])c3)C2=O)cc1` (racemic) the IC50 [1] was 46 nM and the IC50 [2] was 13 nM.
In the case of `N#Cc1ccc(Cn2cncc2CN[C@H]2Cc3ccccc3CN(c3cccc(Cl)c3)C2=O)cc1`, the IC50 [1] is reported as 7 nM, the Control (Mus musculus [3]) is reported as 60% and the Control (Mus musculus [4]) is reported as 35%. For the same compound, the IC50 [2] was 1 nM and the IC50 [5] was 25000 nM.
In the case of `N#Cc1ccc(Cn2cncc2CNC2C(=O)N(c3ccccc3)CCc3ccccc32)cc1` (centres undefined), the IC50 [1] is reported as 95 nM and the IC50 [2] is reported as 54 nM.
In the case of `N#Cc1ccc(Cn2cncc2CNC2C(=O)N(Cc3cc(F)cc(F)c3)CCc3ccccc32)cc1` (centres undefined), the IC50 [1] is reported as 379 nM and the IC50 [2] is reported as 26 nM.
`N#Cc1ccc(Cn2cncc2CNC2Cc3ccccc3CN(c3cccc(Cl)c3)C2=O)cc1` (racemic) showed an IC50 [1] of 16 nM and an IC50 [2] of 4 nM.
Work on `N#Cc1ccc(Cn2cncc2CNC2Cc3ccccc3CN(Cc3ccc(F)cc3F)C2=O)cc1` (centres undefined) yielded an IC50 [1] of 115 nM and an IC50 [2] of 55 nM.
Work on `N#Cc1ccc(Cn2cncc2CNC2Cc3ccccc3CN(c3cccc(Br)c3)C2=O)cc1` (racemic) yielded an IC50 [1] of 5 nM and an IC50 [2] of 15 nM.
`COc1cccc(N2Cc3ccccc3CC(NCc3cncn3Cc3ccc(C#N)cc3)C2=O)c1` (racemic) gave an IC50 [1] of 15 nM and an IC50 [2] of 6 nM.
`N#Cc1ccc(Cn2cncc2CNC2Cc3ccccc3CN(c3cc(Cl)cc(Cl)c3)C2=O)cc1` (centres undefined) gave an IC50 [1] of 7 nM and an IC50 [2] of 15 nM.
In the case of `N#Cc1ccc(Cn2cncc2CNC2Cc3ccccc3CN(c3cccc(F)c3)C2=O)cc1` (racemic), the IC50 [1] is reported as 39 nM and the IC50 [2] is reported as 9 nM.
For `N#Cc1ccc(Cn2cncc2CNC2Cc3ccccc3CN(c3ccccc3)C2=O)cc1` (racemic), the IC50 [1] was 36 nM and the IC50 [2] was 26 nM.

— ChEMBL document CHEMBL1147436, “Synthesis of N,N'-disubstituted 3-aminobenzo[c] and [d]azepin-2-ones as potent and specific farnesyl transferase inhibitors” (Bioorg Med Chem Lett, 2004)
